Assay results as given in patent publication US10392422B2, “Macrocyclic broad spectrum antibiotics” (priority 2014, dated 2019).
Converted amounts (≈) assume the structure as drawn. Read-outs that look alike come from different tables or passages of the source.

Key:
Test in all cases: MIC, broth micro-dilution technique (CLSI)
[1] = system: Escherichia coli MC4100 harboring the IMP4213; type: cell-based; conditions: Escherichia coli, 22 h, read-out: MIC (μg/mL) E. coli, Table 1 protocol: serial 2-fold dilutions starting from 64 μg/ml; 35° C., 22 hours
Outline: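 Susceptibility is tested by broth micro-dilution per CLSI, using ten serial 2-fold dilutions beginning at 64 μg/ml or, in a modified version, 4 μg/mL. The E. coli MC4100 strain carries an imp allele raising outer-membrane permeability.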

[2] = system: Methicillin Resistant Staphylococcus aureus strain USA 300 (NRS384); type: cell-based; conditions: Staphylococcus aureus, 22 h, read-out: MIC (μg/mL) S. aureus
Outline: (§1)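 Cation-adjusted MHB + 0.002% Tween-80; 10-point 2-fold series starting 64 μg/ml (modified protocol: 4 μg/mL). Final inoculum OD600 0.0005; 35° C, 22 h. MIC per CLSI M07-A8 broth microdilution.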

MRSA COL (NRS100) = type: cell-based, Staphylococcus aureus; conditions: Staphylococcus aureus, 22 h, read-out: MIC (μg/mL) (COL)
Outline: as §1

[3] = Table 1 protocol: serial 2-fold dilutions starting from 64 μg/ml, 35° C., 22 hours

Row | Compound | MIC [1] [µg/mL] | MIC [2, 3] [µg/mL] | MIC (MRSA COL (NRS100); [3]) [µg/mL] | MIC [2] [µg/mL] | MIC (MRSA COL (NRS100)) [µg/mL]
1 | CC(=O)[C@H](C)NC(=O)[C@@H]1Cc2ccc(O)c(c2)-c2cc(ccc2OCCNCC(=O)O)[C@H](N(C)C(=O)[C@H](CCCCN)NC(=O)c2ccc(-c3ccc(Cl)cc3)cc2)C(=O)N[C@@H](C)C(=O)N1 [Compound 205] | 32 (≈ 34.5 µM) | 32 (≈ 34.5 µM) | 6 (≈ 6.48 µM) | – | –
2 | CNCCCNCCOc1ccc2cc1-c1cc(ccc1O)C[C@@H](C(=O)N[C@@H](C)C(C)=O)NC(=O)[C@H](C)NC(=O)[C@H]2N(C)C(=O)[C@H](CCCCN)NC(=O)c1ccc(-c2ccc(Cl)cc2)cc1 [Compound 206] | 4 (≈ 4.26 µM) | 4 (≈ 4.26 µM) | 0.19 (≈ 0.202 µM) | – | –
3 | CC(=O)[C@H](C)NC(=O)[C@@H]1Cc2ccc(OCC(=O)O)c(c2)-c2cc(ccc2O)[C@H](N(C)C(=O)[C@H](CCCCN)NC(=O)c2ccc(-c3ccc(Cl)cc3)cc2)C(=O)N[C@@H](C)C(=O)N1 [Compound 207] | 32 (≈ 36.2 µM) | 32 (≈ 36.2 µM) | 6 (≈ 6.79 µM) | – | –
4 | CC(=O)[C@H](C)NC(=O)[C@@H]1Cc2ccc(OCC(=O)O)c(c2)-c2cc(ccc2OCCN)[C@H](N(C)C(=O)[C@H](CCCCN)NC(=O)c2ccc(-c3ccc(Cl)cc3)cc2)C(=O)N[C@@H](C)C(=O)N1 [Compound 208] | 16 (≈ 17.3 µM) | 23 (≈ 24.8 µM) | 6 (≈ 6.48 µM) | – | –
5 | CC(=O)[C@H](C)NC(=O)[C@@H]1Cc2ccc(OCCN)c(c2)-c2cc(ccc2OCCN)[C@H](N(C)C(=O)[C@H](CCCCN)NC(=O)c2ccc(-c3ccc(Cl)cc3)cc2)C(=O)N[C@@H](C)C(=O)N1 [Compound 209] | 4 (≈ 4.39 µM) | 0.5 (≈ 0.549 µM) | 0.13 (≈ 0.143 µM) | – | –
6 | CC(=O)[C@H](C)NC(=O)[C@@H]1Cc2ccc(O)c(c2)-c2cc(cc(CN)c2O)[C@H](N(C)C(=O)[C@H](CCCCN)NC(=O)c2ccc(-c3ccccc3)cc2)C(=O)N[C@@H](C)C(=O)N1 [Compound 210] | 32 (≈ 39 µM) | 32 (≈ 39 µM) | 4 (≈ 4.88 µM) | – | –
7 | C[C@@H]1NC(=O)[C@@H](N(C)C(=O)[C@H](CCCCN)NC(=O)c2ccc(-c3ccc(Cl)cc3)cc2)c2cc(c3oc(CN)cc3c2)-c2cc(ccc2O)C[C@@H](C(=O)O)NC1=O [Compound 211] | 2 (≈ 2.47 µM) | – | – | 11 (≈ 13.6 µM) | 2 (≈ 2.47 µM)
8 | CC(=O)[C@H](C)NC(=O)[C@@H]1Cc2ccc(O)c(c2)-c2cc(cc3cc(CN)oc23)[C@H](N(C)C(=O)[C@H](CCCCN)NC(=O)c2ccc(-c3ccc(Cl)cc3)cc2)C(=O)N[C@@H](C)C(=O)N1 [Compound 212] | 5.7 (≈ 6.49 µM) | 2.5 (≈ 2.85 µM) | 0.5 (≈ 0.569 µM) | – | –
9 | CC(=O)[C@H](C)NC(=O)[C@@H]1Cc2ccc(O)c(c2)-c2cc(cc(CCCN)c2OCCN)[C@H](N(C)C(=O)[C@H](CCCCN)NC(=O)c2ccc(-c3ccccc3)cc2)C(=O)N[C@@H](C)C(=O)N1 [Compound 213] | 4 (≈ 4.49 µM) | 16 (≈ 18 µM) | 2 (≈ 2.24 µM) | – | –
10 | CCCCCCCCCCNCCS(=O)(=O)N[C@@H](CCCCN)C(=O)N(C)[C@@H]1C(=O)N[C@@H](C)C(=O)N[C@H](C(=O)O)Cc2ccc(O)c(c2)-c2cc1ccc2O [Compound 214] | 64 (≈ 81.1 µM) | – | – | 2.8 (≈ 3.55 µM) | 0.75 (≈ 0.951 µM)
11 | CCCCCCCCCCNCCS(=O)(=O)N[C@@H](CCCCN)C(=O)N(C)[C@@H]1C(=O)N[C@@H](C)C(=O)N[C@H](C(=O)N[C@@H](C)C(=O)N2CCC[C@H]2C(N)=O)Cc2ccc(O)c(c2)-c2cc1ccc2O [Compound 215] | > 64 | 0.5 (≈ 0.523 µM) | 0.25 (≈ 0.261 µM) | – | –
12 | CCCCCCCCCCNCCS(=O)(=O)N[C@@H](CCCCN)C(=O)N(C)[C@@H]1C(=O)N[C@@H](C)C(=O)N[C@H](C(=O)N[C@@H](C)C(C)=O)Cc2ccc(O)c(c2)-c2cc1ccc2OCCN [Compound 216] | 64 (≈ 71 µM) | 0.13 (≈ 0.144 µM) | 0.063 (≈ 0.0699 µM) | – | –
13 | CCCCCCCCCNCCCS(=O)(=O)N[C@@H](CCCCN)C(=O)N(C)[C@@H]1C(=O)N[C@@H](C)C(=O)N[C@H](C(=O)N[C@@H](C)C(C)=O)Cc2ccc(O)c(c2)-c2cc1ccc2O [Compound 217] | > 64 | 2 (≈ 2.33 µM) | 0.75 (≈ 0.874 µM) | – | –
14 | CCCCCCCCCCNCCS(=O)(=O)N[C@@H](CCN)C(=O)N(C)[C@@H]1C(=O)N[C@@H](C)C(=O)N[C@H](C(=O)N[C@@H](C)C(C)=O)Cc2ccc(O)c(c2)-c2cc1ccc2O [Compound 218] | > 64 | – | – | 0.35 (≈ 0.422 µM) | 0.13 (≈ 0.157 µM)
15 | CCCCCCCCCCNCCS(=O)(=O)N[C@@H](CCCN)C(=O)N(C)[C@@H]1C(=O)N[C@@H](C)C(=O)N[C@H](C(=O)N[C@@H](C)C(C)=O)Cc2ccc(O)c(c2)-c2cc1ccc2O [Compound 219] | > 64 | – | – | 0.35 (≈ 0.415 µM) | 0.13 (≈ 0.154 µM)
16 | CCCCCCCCCCCCS(=O)(=O)N[C@@H](CCCCN)C(=O)N(C)[C@@H]1C(=O)N[C@@H](C)C(=O)N[C@H](C(=O)O)Cc2ccc(O)c(c2)-c2cc1ccc2O [Compound 220] | 16 (≈ 20.7 µM) | – | – | 2 (≈ 2.58 µM) | 0.33 (≈ 0.426 µM)

Row | Compound | MIC [1] [µg/mL] | MIC [2, 3] [µg/mL] | MIC (MRSA COL (NRS100); [3]) [µg/mL] | MIC [2] [µg/mL] | MIC (MRSA COL (NRS100)) [µg/mL]
17 | CCCCCCCCCCCCS(=O)(=O)N[C@@H](CCCCN)C(=O)N(C)[C@@H]1C(=O)N[C@@H](C)C(=O)N[C@H](C(=O)N[C@@H](C)C(C)=O)Cc2ccc(O)c(c2)-c2cc1ccc2O [Compound 221] | 45 (≈ 53.4 µM) | 0.5 (≈ 0.593 µM) | 0.13 (≈ 0.154 µM) | – | –
18 | CCCCCCCCCCS(=O)(=O)N[C@@H](CCCCN)C(=O)N(C)[C@@H]1C(=O)N[C@@H](C)C(=O)N[C@H](C(=O)O)Cc2ccc(O)c(c2)-c2cc1ccc2O [Compound 222] | > 64 | – | – | 16 (≈ 21.4 µM) | 3 (≈ 4.02 µM)
19 | CC(=O)[C@H](C)NC(=O)[C@@H]1Cc2ccc(O)c(c2)-c2cc(ccc2O)[C@H](N(C)C(=O)[C@H](CCCCN)NS(=O)(=O)c2ccc(-c3ccc(Cl)cc3)cc2)C(=O)N[C@@H](C)C(=O)N1 [Compound 223] | 32 (≈ 37.1 µM) | 0.71 (≈ 0.824 µM) | 2 (≈ 2.32 µM) | – | –
20 | CCCCCCCCCCS(=O)(=O)N[C@@H](CCCCN)C(=O)N(C)[C@@H]1C(=O)N[C@@H](C)C(=O)N[C@H](C(=O)N[C@@H](C)C(=O)N2CCC[C@H]2C(N)=O)Cc2ccc(O)c(c2)-c2cc1ccc2O [Compound 224] | 64 (≈ 70.1 µM) | 16 (≈ 17.5 µM) | 0.13 (≈ 0.142 µM) | – | –
21 | C[C@@H]1NC(=O)[C@@H](N(C)C(=O)[C@H](CCCCN)NS(=O)(=O)c2ccc(-c3ccc(Cl)cc3)cc2)c2ccc(O)c(c2)-c2cc(ccc2O)C[C@@H](C(=O)N[C@@H](C)C(=O)N2CCC[C@H]2C(N)=O)NC1=O [Compound 225] | > 64 | 23 (≈ 24 µM) | 6 (≈ 6.25 µM) | – | –
22 | CC(=O)[C@H](C)NC(=O)[C@@H]1Cc2ccc(O)c(c2)-c2cc(cc(C#CCN)c2OCCN)[C@H](N(C)C(=O)[C@H](CCCCN)NC(=O)c2ccc(-c3ccc(Cl)cc3)cc2)C(=O)N[C@@H](C)C(=O)N1 [Compound 226] | 4 (≈ 4.34 µM) | 4 (≈ 4.34 µM) | 0.25 (≈ 0.271 µM) | – | –
23 | C[C@@H]1NC(=O)[C@@H](N(C)C(=O)[C@H](CCCCN)NC(=O)c2ccc(-c3ccc(Cl)cc3)cc2)c2ccc(O)c(c2)-c2cc(ccc2O)C[C@@H](C(=O)N[C@@H](C)C(=O)C(=O)Nc2ccn[nH]2)NC1=O [Compound 227] | > 64 | 12 (≈ 13 µM) | 2 (≈ 2.17 µM) | – | –
24 | C[C@@H]1NC(=O)[C@@H](N(C)C(=O)[C@H](CCCCN)NC(=O)c2ccc(-c3ccc(Cl)cc3)cc2)c2ccc(O)c(c2)-c2cc(ccc2O)C[C@@H](C(=O)N[C@@H](C)C(=O)C(F)(F)C(N)=O)NC1=O [Compound 228] | 15 (≈ 16.6 µM) | 5.3 (≈ 5.86 µM) | 2 (≈ 2.21 µM) | – | –
25 | C[C@@H]1NC(=O)[C@@H](N(C)C(=O)[C@H](CCCCN)NC(=O)c2ccc(-c3ccc(Cl)cc3)cc2)c2ccc(O)c(c2)-c2cc(ccc2O)C[C@@H](C(=O)N[C@@H](C)C(=O)c2c[nH]cn2)NC1=O [Compound 229] | 24 (≈ 27.4 µM) | 4 (≈ 4.56 µM) | 1 (≈ 1.14 µM) | – | –
26 | C[C@@H]1NC(=O)[C@@H](N(C)C(=O)[C@H](CCCCN)NC(=O)c2ccc(-c3ccc(Cl)cc3)cc2)c2ccc(O)c(c2)-c2cc(ccc2O)C[C@@H](C(=O)N[C@@H](C)C(=O)c2c[nH]nn2)NC1=O [Compound 230] | > 64 | 64 (≈ 72.9 µM) | 8 (≈ 9.11 µM) | – | –
27 | C[C@@H]1NC(=O)[C@@H](N(C)C(=O)[C@H](CCCCN)NC(=O)c2ccc(-c3ccc(Cl)cc3)cc2)c2ccc(O)c(c2)-c2cc(ccc2O)C[C@@H](C(=O)N[C@@H](C)C(=O)c2nnc[nH]2)NC1=O [Compound 231] | 8 (≈ 9.11 µM) | 6 (≈ 6.83 µM) | 1 (≈ 1.14 µM) | – | –
28 | C[C@@H]1NC(=O)[C@@H](N(C)C(=O)[C@H](CCCCN)NC(=O)c2ccc(-c3ccc(Cl)cc3)cc2)c2ccc(O)c(c2)-c2cc(ccc2O)C[C@@H](C(=O)N[C@@H](C)C(=O)c2ncc[nH]2)NC1=O [Compound 232] | 8 (≈ 9.12 µM) | 4 (≈ 4.56 µM) | 1 (≈ 1.14 µM) | – | –
29 | CCC(=O)[C@H](C)NC(=O)[C@@H]1Cc2ccc(O)c(c2)-c2cc(ccc2O)[C@H](N(C)C(=O)[C@H](CCCCN)NC(=O)c2ccc(-c3ccc(Cl)cc3)cc2)C(=O)N[C@@H](C)C(=O)N1 [Compound 233] | 32 (≈ 38.1 µM) | 24 (≈ 28.6 µM) | 4 (≈ 4.77 µM) | – | –
30 | CCN(CC(N)=O)C(=O)[C@H](C)NC(=O)[C@@H]1Cc2ccc(O)c(c2)-c2cc(ccc2O)[C@H](N(C)C(=O)[C@H](CCCCN)NC(=O)c2ccc(-c3ccc(Cl)cc3)cc2)C(=O)N[C@@H](C)C(=O)N1 [Compound 234] | 64 (≈ 70.2 µM) | 64 (≈ 70.2 µM) | 8 (≈ 8.78 µM) | – | –
31 | C[C@@H]1NC(=O)[C@@H](N(C)C(=O)[C@H](CCCCN)NC(=O)c2ccc(-c3ccc(Cl)cc3)cc2)c2ccc(O)c(c2)-c2cc(ccc2O)C[C@@H](C(=O)N[C@@H](C)C(=O)c2ccn[nH]2)NC1=O [Compound 235] | 32 (≈ 36.5 µM) | 4 (≈ 4.56 µM) | 2 (≈ 2.28 µM) | – | –
